Tests used:
[1] = test system: CD69; assay: FACS analysis of CD69 expression in CD19+ B cells; assay type: cell-based, human
Method: (§1) Human buffy coat (50 ml) was diluted with 50 ml sterile PBS (Ca^++, Mg^++ free), and mixed gently. A 25 ml aliquot of diluted buffy coat was transferred to each 50 ml centrifuge tube, and Histopaque-1077 (14 ml, #1077-1, Sigma) was gently layered into the bottom of the tube. The sample was centrifuged at 2,000 rpm for 30 min at room temperature. The interface containing mononuclear cells was transferred into 50 ml centrifuge tube, and washed once with PBS (1200 rpm, 5 min). The supernatant was discarded. Cell pellet was resuspended in Miltenyi buffer. Anti-CD19^+ microbeads were added to the suspension (10^7 cells in 80 μl of buffer, 20 μl antibody beads for 10^7 cells) and incubated for 15 min at 4° C. Cell pellet was washed once and resuspended in 1 ml Miltenyi buffer. The cell suspension was added to the magnetic column, washed with 10 ml Miltenyi buffer in the column. CD19^+ cells are released by 1 ml Miltenyi Buffer without magnetic field. CD19^+ cells were washed twice with RPMI complete medium. B cells (2×10^5) were plated in 96 well plate.
B cells were treated with 1,3-dioxo-(2,6-dioxopiperidin-3-yl)-4-aminoisoindoline (FIG. 3A) or 1-oxo-(2,6-dioxopiperidin-3-yl)-4-aminoisoindoline (FIG. 3B) in presence of anti IgM, anti CD40 and IL-4 for 3 days. The suspension of B cells was washed by PBS once, and incubated with FITC conjugated anti human CD69 for 30 min in the dark. B cells were subject to FACS analysis using flow cytometer (EPICS XL-MCL, Beckman Coulter Company).
To assess whether the effects of immunomodulatory compounds on IL-4 signaling impact on IL-4 mediated B cell activation, FACS array of immediate early expression marker CD69 expression at triplicates and six doses was examined using 1,3-dioxo-(2,6dioxopiperidin-3-yl)-4-aminoisoindoline or 1-oxo-(2,6-dioxopiperidin-3-yl)-4-aminoisoindoline. […] Thus, it is clear that immunomodulatory compounds have no impact on this process.

[2] = test system: TNFα; assay: TNFα ELISA of treated B cells; assay type: cell-based, human; conditions: activated CD19+ cells (FIG. 4)
Method: as §1, with “plate. […]” for “plate.”
TNFα levels in 1,3-dioxo-(2,6-dioxopiperidin-3-yl)-4-aminoisoindoline or 1-oxo-(2,6-dioxopiperidin-3-yl)-4-aminoisoindoline treated B cells were determined using TNFα ELISA.

[3] = test system: B cells; assay: B cell proliferation by BrdU ELISA; assay type: cell-based, human; conditions: 3 days (FIG. 7A)
Method: as §1
B cells were pretreated with 1,3-dioxo-(2,6-dioxopiperidin-3-yl)-4-aminoisoindoline or 1-oxo-(2,6-dioxopiperidin-3-yl)-4-aminoisoindoline at the concentrations of 60 μM, 6 μM, 0.6 μM, 0.06 μM, 0.006 μM, and 0.0006 μM for 30 min, then were added 2 μg/ml of anti-IgM, 2 μg/ml of anti CD40, 40 ng/ml IL-4, 100 ng/ml of recombinant BAFF, and/or 0.5 μg/ml of LPS. B cells were typically treated with the immunomodulatory compound alone or in presence of one or more of above stimuli for 3 days. Stimulated B cells with or without the treatment with immunomodulatory compound were used for cell proliferation assay and cytokines analysis.
The crosslinking of B cell receptor antigen (“BCR”) is the primary signal for B cell activation in response to antigen, and is critical in initializing subsequent B cell activation, proliferation, and differentiation. To assess B cell activation, B cells were treated with 1,3-dioxo-(2,6-dioxopiperidin-3-yl)-4-aminoisoindoline or 1-oxo-(2,6-dioxopiperidin-3-yl)-4-aminoisoindoline in presence of stimuli for 3 days. 25 μl BrdU was added to 250 μl cell culture 24 hours before harvesting cells. B cells were dried at 60° C. after removal of labeling supernatant. 100 μl FixDenat solution was added to fix cells for 30 min at room temperature. FixDenat solution was removed by tapping plate, then 100 μl anti-BrdU-POD was added each well for 90 min, at room temperature, and the plate was washed three 3 times. 100 μl of substrate was added to plate for 10 min, then 100 μl stop solution was added. Absorbance was measured by using an ELISA microplate reader (Molecular Devices) at OD 450 nm. […]

[4] = test system: IgE synthesis; assay: IgE ELISA of human PBMC treated with anti CD40 and IL-4 for three weeks; assay type: cell-based; conditions: 504 h, human PBMCs in presence of CD40+IL-4 for three weeks (FIGS. 11A and B), read-out: IC50 of inhibition of IgE synthesis
Method: Human PBMCs (1×10^6/ml) were treated with immunomodulatory compounds in presence of anti-CD40 (2 ug/ml) and IL-4 (40 ng/ml) for three weeks. Fifty microliter of supernatant was used for IgE ELISA, following the manufacturer's instruction. The absorbance was read by ELISA reader at OD=450 nm.
IL-4 is a unique signal for B cells to produce IgE during the immunoglobulin class switch. To assess whether immunomodulatory compounds can regulated IgE synthesis, 1,3-dioxo-(2,6-dioxopiperidin-3-yl)-4-aminoisoindoline or 1-oxo-(2,6-dioxopiperidin-3-yl)-4-aminoisoindoline was incubated with human PBMCs in presence of CD40+IL-4 for three weeks. […] (FIGS. 11A and B).
Treatment of PBMC: 200 μl of 1×10^6/ml human PBMC were plated in 96 well plate, and the cells were pretreated with IMiDs at indicated concentrations (60, 6, 0.6, 0.06, 0.006, 0.0006 uM) for 30 minutes. Anti CD40 (#AHS4002, Biosource, 2 μg/ml) and IL-4 (#200-04, Pepro Tech, 40 ng/ml) were added to each well. Human PBMC in presence of IMiDs, anti CD40 and IL-4 were incubated for three weeks. Fifty microliters of supernatant was subjected to IgE ELISA.
IgE ELISA: The IgE ELISA Quantitation Kit was purchased from Bethyl Laboratories, Inc. (#E80-108). […] The ELISA plate was read at OD=450 nm in ELISA plate reader.

[5] = cited from earlier work; for hygroscopicity: crystalline polymorphic form; for interconversion of the polymorphic form: solvent system, humidity or heating

For `Nc1cccc2c1CN(C1CCC(=O)NC1=O)C2=O` (stereo not shown) [1-oxo-(2,6-dioxopiperidin-3-yl)-4-aminoisoindoline], the CD69 expression ([1]; CD19+ B cells treated with anti human IgM, anti human CD40 and IL-4, 3 days (FIGS. 3A, 3B)) was “dose-dependently enhanced”, the CD69 expression ([1]; IL-4 stimulated CD19+ B cells, triplicates, six doses (FIGS. 10A and B)) was “neither immunomodulatory compound inhibited” and the “TNFα production in B cells” value [2] was “dose dependently enhance”. For the same compound, the B cell proliferation ([3]; combined with IgM (anti-IgM)) was “enhance”, the “effect on B cell activation/proliferation” value ([3]; compound alone) was “minimal effect” and the IC50 [4] was 100 to 300 nM.
For `Nc1cccc2c1CN(C1CCC(=O)NC1=O)C2=O` (stereo not shown) [Form A, 3-(4-amino-1-oxo-1,3 dihydro-isoindol-2-yl)-piperidene-2,6-dione], the “relative stability of the polymorphic form” value ([5]; Form A among anhydrous polymorphs, Form E in aqueous solvent systems) is given as “most thermodynamically stable anhydrous polymorph” and the hygroscopicity [5] is given as “weakly or not hygroscopic”.
For `Nc1cccc2c1CN(C1CCC(=O)NC1=O)C2=O` (stereo not shown) [Form C, 3-(4-amino-1-oxo-1,3 dihydro-isoindol-2-yl)-piperidene-2,6-dione], the hygroscopicity [5] is listed as “not hygroscopic below about 85% RH” and the “interconversion of the polymorphic form” value [5] is listed as “can convert to Form B at higher relative humidities”.
In the case of `Nc1cccc2c1CN(C1CCC(=O)NC1=O)C2=O` (stereo not shown) [Form B, 3-(4-amino-1-oxo-1,3 dihydro-isoindol-2-yl)-piperidene-2,6-dione], the “interconversion of the polymorphic form” value [5] is given as “converts to Form E in aqueous solvent systems”.
In the case of `Nc1cccc2c1CN(C1CCC(=O)NC1=O)C2=O` (stereo not shown) [Form D, 3-(4-amino-1-oxo-1,3 dihydro-isoindol-2-yl)-piperidene-2,6-dione], the hygroscopicity [5] is listed as “either weakly or not hygroscopic” and the “interconversion of the polymorphic form” value [5] is listed as “will typically convert to Form B when stressed at higher relative humidities”.
